Measured values published in the NIST ThermoML archive (doi:10.1016/j.jct.2010.07.006).
Where “and” joins values, the source holds several entries; their conditions need not be identical. Equal entries are not always repeated.

Conditions: Crystal, Calculated from knudsen effusion weight loss

Cc1cc(C(=O)O)c(C)o1 [2,5-dimethyl-3-furancarboxylic acid]
Conditions | vapor or sublimation pressure
309.19 K | 0.0001409 kPa and 0.000132 kPa and 0.0001359 kPa
311.12 K | 0.0001806 kPa and 0.0001768 kPa and 0.0001708 kPa
313.08 K | 0.0002273 kPa and 0.0002279 kPa and 0.0002259 kPa
315.18 K | 0.0002809 kPa and 0.0002804 kPa and 0.0002914 kPa
317.12 K | 0.0003673 kPa and 0.0003617 kPa and 0.0003524 kPa
319.08 K | 0.0004503 kPa and 0.0004556 kPa and 0.000449 kPa
321.18 K | 0.0005801 kPa and 0.0005612 kPa and 0.000567 kPa
323.09 K | 0.0007336 kPa and 0.0007218 kPa and 0.0007101 kPa
325.07 K | 0.0009185 kPa and 0.000908 kPa and 0.0008953 kPa
325.19 K | 0.0009292 kPa and 0.000927 kPa and 0.0008864 kPa
327.1 K | 0.001147 kPa and 0.001128 kPa and 0.001102 kPa
